Source: patent publication US20140030808A1, “Method for Cellular RNA Expression” (BIONTECH AG, priority 2010, published 2014)

Assays:
[1] = test system: Primary human foreskin fibroblasts (BJ, CCD1079Sk); assay: Intracellular FACS staining of reprogramming transcription factors after IVT RNA transfer; type: cell-based
Method: (AB) Primary human foreskin fibroblasts from different donors and suppliers (panel A: BJ fibroblasts; panel B: CCD1079Sk) and (C) MEFs were electroporated with 0.5 μg IVT RNA encoding for firefly luciferase and 1.25 μg IVT RNA encoding for eGFP and 2.5 μg of IVT RNA encoding for each of the individual reprogramming factors OCT4, SOX2, KLF4 and c-MYC. Electroporations were performed in 2 mm gap cuvettes using optimized parameters for each cell type. The cells were plated into 6-well-plates at a density of 250000 cells/well. The cells were either left untreated or incubated with increasing amounts of C13H8N4OS (PKR-inhibitor) ranging from 0.5 μM to 2 μM as indicated in the panel legend. The OCT4 expression was detected by intracellular staining with a fluorescently labeled antibody and measured by flow cytometry at the indicated time points. The mean fluorescence intensity (MFI) of the transfected OCT4-positive cell fractions is shown. (D) CCD1079Sk fibroblasts were electroporated with IVT RNA as in B and treated for 24 h or 48 h with 2 μM C13H8N4OS. 72 h post electroporation the cells were harvested and intracellular staining with fluorescent labeled antibodies reactive against the indicated transcription factors were performed. The MFI of the transcription factor-positive cell fractions are shown.
Intracellular FACS staining of OCT4, SOX2 and NANOG was done using the human pluripotent stem cell transcription factor analysis kit following the manufacturer's instructions (BD Bioscience). Briefly, 3-5×10^5 cells were harvested, washed twice with PBS and fixed for 20 min in 250 μl BD Cytofix Buffer (BD Biosciences) at room temperature. After the incubation cells were washed twice with PBS and permeabilized by washing twice with 1× Perm/Wash Buffer (BD Bioscience) followed by 10 minutes incubation in 50 μl 1× Perm/Wash at room temperature. […] Cells were resuspended in PBS supplemented with 2% formaldehyde and analyzed by flow cytometry as described above. […]

[2] = test system: immature dendritic cells (iDCs); type: cell-based, human; settings: 0.5 μM to 2 μM
[3] = test system: human foreskin fibroblasts; assay: Luciferase activity after lipofection (RNAiMAX) of IVT RNA; type: cell-based; settings: increasing concentrations
Method: 1.2 μg 5′-triphosphorylated and non-modified IVT RNA (0.8 μg encoding luciferase, 0.4 μg GFP) was packaged with 6 μl RNAiMAX transfection reagent (Invitrogen) and transfected into human foreskin fibroblasts and the medium supplemented with increasing concentrations of C13H8N4OS. At the indicated time points the cells were lysed and luciferase activity of the lysates was measured. […] This effect was dose-dependent.
To study whether C13H8N4OS could also enhance translation upon liposomal IVT RNA transfer, 1.2 μg 5′-triphosphorylated and non-modified IVT RNA (0.8 μg encoding luciferase, 0.4 μg GFP) was packaged with 6 μl RNAiMAX transfection reagent (Invitrogen) and transfected into human foreskin fibroblasts. After 3 h incubation with the transfection mixture, the medium was renewed and supplemented with increasing concentrations of C13H8N4OS. At the time points indicated in FIG. 15 the cells were lysed using luciferase stabilizing passive lysis buffer (Promega) according to the manufacturer's instructions. By the end of the time course, luciferase activity of all lysates was measured. […] This effect was dose-dependent. One of three independently performed experiments is shown. Thus, the effect of C13H8N4OS on translation of IVT RNA is not restricted to the delivery via electroporation. […]

[4] = test system: Human primary CD4 and CD8 positive T-cells; type: cell-based; settings: 0.5 μM to 2 μM
CCD1079SK fibroblasts = assay: Induction of pluripotency marker genes (qRT-PCR); type: cell-based, human; settings: 2 μM, 72 h after electroporation
Method: CCD1079SK fibroblasts were either mock electroporated or electroporated with IVT RNA encoding for firefly luciferase (1 μg), eGFP (1.25 μg), SV40 Large T (1.25 μg), HPV16-E6 (1.25 μg), OCT4, SOX2, KLF4, cMYC, NANOG and LIN28 (2.5 μg OCT4 and equimolar amounts for the others). Electroporations were performed in 2 mm gap cuvettes using optimized parameters for CCDs. The cells were plated into 6-well-plates at a density of 250000 cells/well and either left untreated or incubated with 2 μM C13H8N4OS as indicated. […] GDF3 and hTERT induction was increased by the treatment 72 h after electroporation.
Total cellular RNA was extracted from cells with RNeasy Mini Kit or RNeasy Micro Kit (Qiagen, Hilden, Germany), reverse transcribed with oligo-dT18 using Superscript II (Invitrogen, Carlsbad, Calif., USA), and subjected to real-time quantitative analysis on ABI PRISM 7700 Sequence Detection System instrument and software (Applied Biosystems, Foster City, Calif., USA) using the QuantiTect SYBR Green PCR Kit (Qiagen). Reactions were performed in triplicates with primer amplifying a specific region of the codon optimized
A direct consequence of reprogramming transcription factor expression is the induction of pluripotency marker genes at the transcriptional level. […]

[5] = 2 μM for 24 h or 48 h, 72 h post electroporation

SMILES: O=C1Nc2ccc3ncsc3c2/C1=C/c1c[nH]cn1 [C13H8N4OS, 6,8-dihydro-8-(1H-imidazol-5-ylmethylene)-7H-pyrrolo[2,3-g]benzothiazol-7-one]
- OCT4 expression (MFI) ([1]; 0.5 μM to 2 μM permanently or 2 μM for 24 h or 48 h): strongly increased and stabilized
- Nanog expression (MFI) [1, 5]: strongly increased and stabilized
- SOX2 expression (MFI) [1, 5]: strongly increased and stabilized
- luciferase expression [2]: loss of luciferase expression
- dose dependence of the effect on translation of luciferase [3]: dose-dependent
- translation of luciferase after liposomal IVT RNA transfer [3]: stabilizing effect on translation of luciferase
- GFP expression (MFI) [4]: Neither in T-cells nor in iDCs PKR inhibition led to an increased GFP expression
- GDF3 induction (qRT-PCR) (CCD1079SK fibroblasts): increased
- hTERT induction (qRT-PCR) (CCD1079SK fibroblasts): increased
